Results reported in ChEMBL document CHEMBL1201862, “PubChem BioAssay data set” (2004).
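Following 48 hours of exposure in 96-well plates, responses at five concentrations were used to interpolate endpoints linearly. GI50 = concentration required for 50% inhibition of growth.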 Calls of active or inactive are those of the source. Cut-off read from the data, not from the text of the source: active = GI50 up to about 1.1 µM and inactive = higher.

Legend:
Experiment in all cases: NCI tumour cell line growth inhibition, 48 h
786-0 = system: 786-0
A549 = system: A549
ACHN = system: ACHN
CCRF-CEM = system: CCRF-CEM
COLO 205 = system: COLO 205
HL-60 = system: HL-60
HOP-92 = system: HOP-92
HT-29 = system: HT-29
LOX IMVI = system: LOX IMVI
M14 = system: M14
Malme-3M = system: Malme-3M
NCI-H23 = system: NCI-H23
NCI-H460 = system: NCI-H460
RXF 393 = system: RXF 393
SF-268 = system: SF-268
SK-MEL-5 = system: SK-MEL-5
UACC-257 = system: UACC-257
UACC-62 = system: UACC-62
SN12C = system: SN12C
A498 = system: A498

Measured: GI50

O=C(O)C1CC2C=CCC(C2)C1 (centres undefined)
inactive: 786-0 > 100 µM | A549 > 100 µM | ACHN > 100 µM | CCRF-CEM > 100 µM | COLO 205 > 100 µM | HL-60 > 100 µM | HOP-92 > 100 µM | HT-29 > 100 µM | LOX IMVI > 100 µM | M14 > 100 µM | Malme-3M > 100 µM | NCI-H23 > 100 µM | NCI-H460 > 100 µM | RXF 393 > 100 µM | SF-268 > 100 µM | SK-MEL-5 > 100 µM | UACC-257 > 100 µM | UACC-62 > 100 µM

CC[n+]1c(-c2ccccc2)c2cc(N)ccc2c2ccc(N)cc21 [HOMIDIUM BROMIDE]
inactive: A549 11.9 µM | ACHN 19 µM | COLO 205 1.68 µM | HL-60 5.97 µM | HOP-92 2.24 µM | HT-29 3.67 µM | M14 13.6 µM | NCI-H23 1.53 µM | NCI-H460 5.06 µM | RXF 393 5.68 µM | SK-MEL-5 1.2 µM | SN12C 3.24 µM | UACC-257 2.01 µM

CC(C)OP(=O)(OC(C)C)/C(F)=N/Nc1ccc([N+](=O)[O-])cc1
inactive: A498 > 100 µM | A549 > 100 µM | ACHN > 100 µM | CCRF-CEM > 100 µM | COLO 205 > 100 µM | HL-60 > 100 µM | HOP-92 > 100 µM | HT-29 > 100 µM | M14 > 100 µM | Malme-3M > 100 µM | NCI-H23 > 100 µM | NCI-H460 > 100 µM | SF-268 > 100 µM | SK-MEL-5 > 100 µM | SN12C > 100 µM | UACC-257 > 100 µM | UACC-62 > 100 µM

C[N+](C)(C)CC1CCC(C[N+](C)(C)C)C1=NO (centres undefined)
inactive: 786-0 > 100 µM | A498 > 100 µM | A549 > 100 µM | ACHN > 100 µM | CCRF-CEM > 100 µM | COLO 205 > 100 µM | HL-60 > 100 µM | HT-29 > 100 µM | LOX IMVI > 100 µM | M14 > 100 µM | Malme-3M > 100 µM | NCI-H23 > 100 µM | RXF 393 > 100 µM | SF-268 > 100 µM | SK-MEL-5 > 100 µM | SN12C > 100 µM | UACC-257 > 100 µM | UACC-62 > 100 µM

CC1SC2=NC3=C(c4ccccc4C3=O)C(c3ccccc3Cl)N2C1=O (centres undefined)
inactive: 786-0 > 100 µM | A498 > 100 µM | A549 > 100 µM | ACHN > 100 µM | CCRF-CEM 70.3 µM | COLO 205 > 100 µM | HL-60 > 100 µM | HOP-92 78.2 µM | HT-29 > 100 µM | LOX IMVI > 100 µM | M14 > 100 µM | Malme-3M > 100 µM | NCI-H23 85.7 µM | NCI-H460 > 100 µM | SF-268 > 100 µM | SK-MEL-5 > 100 µM | SN12C > 100 µM | UACC-257 > 100 µM | UACC-62 80.2 µM

CCc1ccc2nc(-c3ccc(O)cc3)sc2c1
inactive: A498 18 µM | A549 17.9 µM | ACHN 17.7 µM | COLO 205 15.3 µM | HL-60 2.96 µM | HT-29 16.6 µM | LOX IMVI 16.3 µM | M14 18.7 µM | Malme-3M 17.3 µM | NCI-H23 16.1 µM | NCI-H460 21.1 µM | SF-268 17.4 µM | SK-MEL-5 17.8 µM | SN12C 14.6 µM | UACC-257 12.7 µM | UACC-62 12.4 µM

C1CCCCc2nc3c(nc2CCC1)c1nc2c(nc1c1nc4c(nc31)CCCCCCCC4)CCCCCCCC2
inactive: 786-0 > 100 µM | A498 > 100 µM | A549 > 100 µM | ACHN > 100 µM | CCRF-CEM > 100 µM | COLO 205 > 100 µM | HL-60 > 100 µM | HOP-92 > 100 µM | HT-29 > 100 µM | LOX IMVI > 100 µM | M14 > 100 µM | Malme-3M > 100 µM | NCI-H23 > 100 µM | NCI-H460 > 100 µM | SF-268 > 100 µM | SN12C > 100 µM | UACC-257 > 100 µM | UACC-62 > 100 µM

COC(=O)/C=C1/N=C(N(C)/N=C/c2ccccc2)NC1=O
inactive: 786-0 > 100 µM | A549 > 100 µM | CCRF-CEM > 100 µM | COLO 205 > 100 µM | HL-60 > 100 µM | HT-29 > 100 µM | LOX IMVI > 100 µM | M14 > 100 µM | Malme-3M > 100 µM | NCI-H23 > 100 µM | NCI-H460 > 100 µM | RXF 393 > 100 µM | SF-268 > 100 µM | SK-MEL-5 > 100 µM | SN12C > 100 µM | UACC-257 > 100 µM | UACC-62 > 100 µM

COc1ccc(Nc2cnc3cc(N)ccc3n2)cc1OC
inactive: ACHN 83.9 µM | CCRF-CEM 37.4 µM | COLO 205 > 100 µM | HL-60 26.7 µM | HOP-92 7.62 µM | HT-29 > 100 µM | LOX IMVI 37.1 µM | M14 > 100 µM | Malme-3M > 100 µM | NCI-H23 26.9 µM | NCI-H460 23.9 µM | RXF 393 > 100 µM | SF-268 74.1 µM | SK-MEL-5 49.9 µM | SN12C 39.3 µM | UACC-257 > 100 µM | UACC-62 72.3 µM

COc1ccc(C[C@H]2COC(=O)[C@@H]2Cc2cccc(Br)c2)cc1OC
inactive: 786-0 28.1 µM | A549 32.9 µM | ACHN 18.6 µM | CCRF-CEM 5.11 µM | COLO 205 14 µM | HL-60 12.2 µM | HOP-92 12.1 µM | HT-29 21.8 µM | LOX IMVI 3.85 µM | M14 14.4 µM | Malme-3M 21.2 µM | NCI-H23 21.2 µM | NCI-H460 26.2 µM | RXF 393 23.6 µM | SF-268 29.7 µM | SK-MEL-5 15.7 µM | SN12C 27.5 µM | UACC-257 21.5 µM | UACC-62 25.6 µM

O=C(Nc1nccs1)c1c(O)nc2sccn2c1=O
inactive: A498 > 10 µM | A549 > 10 µM | ACHN > 10 µM | CCRF-CEM > 10 µM | COLO 205 > 10 µM | HL-60 > 10 µM | HT-29 > 10 µM | LOX IMVI > 10 µM | M14 > 10 µM | Malme-3M > 10 µM | NCI-H23 > 10 µM | NCI-H460 > 10 µM | RXF 393 > 10 µM | SF-268 > 10 µM | SK-MEL-5 > 10 µM | SN12C > 10 µM | UACC-62 > 10 µM
